This note sets out measurements from ChEMBL document CHEMBL1201862, “PubChem BioAssay data set” (2004).

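Assay format: 96-well plates, 48-hour exposure. Abbreviation: GI50, concentration required for 50% inhibition of growth.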 Calls of active or inactive are those of the source. No stated cut-off is given here; in the data, active = GI50 up to about 1.1 µM and inactive = higher. Where only a bound is given, the exact number is not on record here.

Test systems include A498; HOP-62; HCT-15; NCI-H23; COLO 205; SF-295; HCC 2998; A549; SK-MEL-2; OVCAR-5; MCF7; M14; U-251; OVCAR-4; UACC-62; ACHN; SN12C; SK-MEL-5; EKVX; NCI-H522.
Experiment in all cases: NCI tumour cell line growth inhibition, 48 h

For `COC(=O)c1c(-c2ccccc2)c2sc3ccccc3n2c1N`, the GI50 in the experiment on A498 was 30.5 µM (inactive); in the experiment on HOP-62 it was 31.5 µM (inactive); in the experiment with HCT-15, 85.7 µM; in the experiment with NCI-H23, 72.1 µM (inactive); in the experiment with COLO 205, 28.2 µM (inactive); with SF-295, 34.1 µM (inactive). The GI50 in the experiment with HCC 2998 is 31.5 µM (inactive); in the experiment with A549, 29.6 µM (inactive); in the experiment with SK-MEL-2 it was 32.9 µM (inactive); in the experiment with OVCAR-5, > 100 µM (inactive); with MCF7, 34.8 µM (inactive); in the experiment on M14, 76.6 µM (inactive). In addition, the GI50 in the experiment with U-251 is 59.4 µM (inactive); with OVCAR-4, 56.5 µM (inactive); in the experiment with UACC-62 it was > 100 µM (inactive); in the experiment on ACHN, 50 µM (inactive); in the experiment with SN12C, 33 µM (inactive); in the experiment with SK-MEL-5, 59 µM (inactive). Further, the values for the GI50 with EKVX and with NCI-H522 were 58.3 µM (inactive) and 24.2 µM (inactive), respectively.
On to `O=C(O)c1nc2ccc(C(F)(F)F)cc2[nH]c1=O`, for which the GI50 in the experiment on A498 is > 100 µM (inactive); in the experiment on HOP-62, > 100 µM (inactive); in the experiment with HCT-15 it was more than 100 µM; in the experiment on NCI-H23 it was > 100 µM (inactive); in the experiment with COLO 205 it was > 100 µM (inactive); in the experiment on SF-295, > 100 µM (inactive). Further, the GI50 with HCC 2998, in the experiment with A549, with SK-MEL-2, in the experiment on OVCAR-5, in the experiment with MCF7 and with M14 was > 100 µM (inactive) each time. Further, the GI50 in the experiment on U-251, in the experiment on OVCAR-4, with UACC-62, in the experiment with ACHN, in the experiment with SN12C and with SK-MEL-5 was > 100 µM (inactive) throughout. For the same molecule, the GI50 with EKVX and in the experiment with NCI-H522 was > 100 µM (inactive) in each case.
